Measurements as given in patent US9499535B2, “Kinase inhibitors” (ORIGENIS GMBH, priority 2011, dated 2016).

Target: T1, SYK kinase (Homo sapiens, UniProt P43405)
T1 construct: purchased Invitrogen, Carlsbad
Test: SYK assay (OMNIA Kinase Assay, Invitrogen)
Assay type: biochemical
Conditions: apparent Ki calculated from the IC50 using the Cheng-Prusoff equation; 1 mM ATP, 10 μM Peptide Substrate; read-out: SYK Activities: Ki
Description: In the assay OMNIA® KINASE ASSAY by Invitrogen Corporation (Carlsbad) the effect of invention of a compound on the phosphorylation is determined by measurement of fluorescence intensity of a chelation-enhanced fluorophore called SOX. Upon phosphorylation of the peptide by the kinase of interest, Mg2+ is chelated to form a bridge between the SOX moiety and the phosphate group that is transferred to the specific tyrosine on the peptide. The fluorescence intensity is directly proportional to the amount of peptide phosphorylation.
To the wells of an 384 well small volume plate (Greiner, Frickenhausen) are added (i) the compound under test in 5% DMSO/distilled water (2 μl), (ii) 16 μl of the master mix containing ATP, DTT, Kinase Reaction Buffer, Omina Peptide Substrate Tyr 7 resulting in a final concentration of 1 mM ATP, 0.2 mM DTT and 10 μM Peptide Substrate.
The Master Mix and the assay plate was incubated to reaction temperature before the measurement (30° C.). The reaction was started with addition of (iii) 2 μl 4 μg/ml SYK kinase (Invitrogen, Carlsbad). During measurement fluorescence intensitiy readings were collected using a TECAN M1000 at a wavelength of λex 360/λem 485 nm every 30 s for 30 minutes. The reaction velocity was plotted versus the inhibitor concentration to determine the IC50 using XLFit 5.0 (IDBS, Guildford) to fit to a sigmoidal dose response curve, and the apparent Ki values were calculated from the IC50 using the Cheng-Prusoff equation (Cheng, Y.; Prusoff, W. H. Biochem. Pharmacol. 22, 3099-3108, 1973).

Row | SMILES | Ki
1 | COc1ccc2nc(Nc3ccc(Oc4ccccc4)cc3)c3n[nH]cc3c2c1 [Example #159, (8-Methoxy-2H-pyrazolo[3,4-c]quinolin-4-yl)-(4-phenoxy-phenyl)-amine] | 0.01 to 0.1 µM
2 | CN1CCN(c2ccc(Nc3nc4ccccc4c4c[nH]nc34)cc2)CC1 [Example #26, [4-(4-Methyl-piperazin-1-yl)-phenyl]-(2H-pyrazolo[3,4-c]quinolin-4-yl)-amine] | 0.1 to 1 µM
3 | COc1ccc2nc(Nc3ccc(Cc4ccccc4)cc3)c3n[nH]cc3c2c1 [Example #190, (4-Benzyl-phenyl)-(8-methoxy-2H-pyrazolo[3,4-c]quinolin-4-yl)-amine] | 0.1 to 1 µM
4 | COc1ccc2nc(Nc3cc(C)cc(C)n3)c3n[nH]cc3c2c1 [Example #156, (4,6-Dimethyl-pyridin-2-yl)-(8-methoxy-2H-pyrazolo[3,4-c]quinolin-4-yl)-amine] | 0.1 to 1 µM
5 | COc1ccc2nc(Nc3cc(C)ccn3)c3n[nH]cc3c2c1 [Example #154, (8-Methoxy-2H-pyrazolo[3,4-c]quinolin-4-yl)-(4-methyl-pyridin-2-yl)-amine] | 0.1 to 1 µM
6 | COc1ccc2nc(Nc3nc4c(s3)CCCC4)c3n[nH]cc3c2c1 [Example #158, (8-Methoxy-2H-pyrazolo[3,4-c]quinolin-4-yl)-(4,5,6,7-tetrahydro-benzothiazol-2-yl)-amine] | 0.1 to 1 µM
7 | COc1ccc2nc(Nc3nnc(C4CC4)[nH]3)c3n[nH]cc3c2c1 [Example #141, (5-Cyclopropyl-4H-[1,2,4]triazol-3-yl)-(8-methoxy-2H-pyrazolo[3,4-c]quinolin-4-yl)-amine] | 0.1 to 1 µM
8 | c1ccc2c(c1)nc(Nc1ccc3c(c1)OCO3)c1n[nH]cc12 [Example #22, Benzo[1,3]dioxol-5-yl-(2H-pyrazolo[3,4-c]quinolin-4-yl)-amine] | 0.1 to 1 µM
9 | COc1ccc2nc(Nc3ccc4[nH]ncc4c3)c3n[nH]cc3c2n1 [Example #90, (1H-Indazol-5-yl)-(8-methoxy-2H-2,3,5,9-tetraaza-cyclopenta[a]naphthalen-4-yl)-amine] | 0.1 to 1 µM
10 | c1ccc2c(c1)nc(Nc1ccc3[nH]ncc3c1)c1n[nH]cc12 [Example #4, (1H-Indazol-5-yl)-(2H-pyrazolo[3,4-c]quinolin-4-yl)-amine] | 0.1 to 1 µM
11 | COc1ccc2nc(Nc3cccc(N(C)C)c3)c3n[nH]cc3c2c1 [Example #76, N-(8-Methoxy-2H-pyrazolo[3,4-c]quinolin-4-yl)-N′,N′-dimethyl-benzene-1,3-diamine] | 0.1 to 1 µM
12 | c1ccc2c(c1)nc(Nc1ccc3cn[nH]c3c1)c1n[nH]cc12 [Example #6, (1H-Indazol-6-yl)-(2H-pyrazolo[3,4-c]quinolin-4-yl)-amine] | 0.01 to 0.1 µM
13 | COc1ccc(Nc2nc3cccnc3c3c[nH]nc23)cc1OC [Example #123, (3,4-Dimethoxy-phenyl)-(2H-2,3,5,9-tetraaza-cyclopenta[a]naphthalen-4-yl)-amine] | 0.01 to 0.1 µM
14 | COc1ccc2nc(Nc3ccc4c(c3)COCO4)c3n[nH]cc3c2c1 [Example #146, (4H-Benzo[1,3]dioxin-6-yl)-(8-methoxy-2H-pyrazolo[3,4-c]quinolin-4-yl)-amine] | 0.1 to 1 µM
15 | c1ccc(Nc2nc3ccccc3c3c[nH]nc23)cc1 [Example #5, Phenyl-(2H-pyrazolo[3,4-c]quinolin-4-yl)-amine] | 0.1 to 1 µM
16 | COc1ccc2nc(Nc3ccc4cc[nH]c4c3)c3[nH]ncc3c2c1 [Example #75, (1H-Indol-6-yl)-(8-methoxy-3H-pyrazolo[3,4-c]quinolin-4-yl)-amine] | 0.1 to 1 µM
17 | c1cc2c(cn1)nc(Nc1ccc3cn[nH]c3c1)c1n[nH]cc12 [Example #91, (1H-Indazol-6-yl)-(2H-2,3,5,7-tetraaza-cyclopenta[a]naphthalen-4-yl)-amine] | 0.01 to 0.1 µM
18 | c1ccc2c(c1)nc(Nc1ccc3[nH]ccc3c1)c1n[nH]cc12 [Example #82, (1H-Indol-5-yl)-(2H-pyrazolo[3,4-c]quinolin-4-yl)-amine] | 0.1 to 1 µM
19 | COc1ccc2nc(Nc3cc(C)c4[nH]ncc4c3)c3n[nH]cc3c2c1 [Example #10, (8-Methoxy-2H-pyrazolo[3,4-c]quinolin-4-yl)-(7-methyl-1H-indazol-5-yl)-amine] | 0.01 to 0.1 µM
20 | CN1CCCN(c2ccc(Nc3nc4ccccc4c4c[nH]nc34)cc2)CC1 [Example #27, [4-(4-Methyl-[1,4]diazepan-1-yl)-phenyl]-(2H-pyrazolo[3,4-c]quinolin-4-yl)-amine] | 0.1 to 1 µM
21 | COc1ccc2nc(Nc3ccc(N(C)C)c(C)c3)c3n[nH]cc3c2c1 [Example #178, N4-(8-Methoxy-2H-pyrazolo[3,4-c]quinolin-4-yl)-2,N1,N1-trimethyl-benzene-1,4-diamine] | 0.01 to 0.1 µM
22 | COc1ccc2nc(Nc3ccc4c(c3)NC(=O)CN4)c3n[nH]cc3c2c1 [Example #182, 7-(8-Methoxy-2H-pyrazolo[3,4-c]quinolin-4-ylamino)-3,4-dihydro-1H-quinoxalin-2-one] | 0.01 to 0.1 µM
23 | COc1ccc2nc(Nc3ccc4c(O)ncnc4c3)c3[nH]ncc3c2c1 [Example #110, 7-(8-Methoxy-3H-pyrazolo[3,4-c]quinolin-4-ylamino)-quinazolin-4-ol] | 0.1 to 1 µM
24 | c1ccc(Nc2nc3ccccc3c3cn[nH]c23)nc1 [Example #28, (3H-Pyrazolo[3,4-c]quinolin-4-yl)-pyridin-2-yl-amine] | 0.1 to 1 µM

Other lines, results leading:

Row | Ki | SMILES
25 | 0.1 to 1 µM | COc1ccc(Nc2nc3snc(C)c3c3c[nH]nc23)cc1OC [Example #218, (3,4-Dimethoxy-phenyl)-(1-methyl-7H-3-thia-2,4,6,7-tetraaza-as-indacen-5-yl)-amine]
26 | 0.01 to 0.1 µM | COc1ccc(Nc2nc3cc(F)ccc3c3cn[nH]c23)cc1OC [Example #336, N-(3,4-dimethoxyphenyl)-7-fluoro-3H-pyrazolo[3,4-c]quinolin-4-amine]
27 | 0.01 to 0.1 µM | CCN1CCN(c2ccc(Nc3nc4cc(OC)ccc4c4c[nH]nc34)cc2)CC1 [Example #260, [4-(4-Ethyl-piperazin-1-yl)-phenyl]-(7-methoxy-2H-pyrazolo[3,4-c]quinolin-4-yl)-amine]
28 | < 0.01 µM | COc1ccc(Nc2nc3cc(C#N)ccc3c3c(C)[nH]nc23)cc1OC [Example #226, 4-(3,4-Dimethoxy-phenylamino)-1-methyl-2H-pyrazolo[3,4-c]quinoline-7-carbonitrile]
29 | 0.1 to 1 µM | COc1cccc2c1nc(Nc1ccc3c(c1)OCO3)c1n[nH]cc12 [Example #249, Benzo[1,3]dioxol-5-yl-(6-methoxy-2H-pyrazolo[3,4-c]quinolin-4-yl)-amine]
30 | 0.1 to 1 µM | Cc1[nH]nc2c(Nc3ccc4cn[nH]c4c3)nc3cc(C#N)ccc3c12 [Example #227, 4-(1H-Indazol-6-ylamino)-1-methyl-2H-pyrazolo[3,4-c]quinoline-7-carbonitrile]
31 | 0.1 to 1 µM | COc1ccc(Nc2nc3ccccc3c3c([N+](=O)[O-])[nH]nc23)cc1OC [Example #213, (3,4-Dimethoxy-phenyl)-(1-nitro-2H-pyrazolo[3,4-c]quinolin-4-yl)-amine]
32 | 0.1 to 1 µM | CN1CCN(c2ccc(Nc3nc4ccccc4c4c(C(F)(F)F)[nH]nc34)cc2)CC1 [Example #211, [4-(4-Methyl-piperazin-1-yl)-phenyl]-(1-trifluoromethyl-2H-pyrazolo[3,4-c]quinolin-4-yl)-amine]
33 | 0.1 to 1 µM | COc1ccc2nc(Nc3cc(F)cc(F)c3)c3n[nH]cc3c2c1 [Example #315, N-(3,5-difluorophenyl)-8-methoxy-2H-pyrazolo[3,4-c]quinolin-4-amine]
34 | < 0.01 µM | COc1ccc2nc(Nc3ccc(NC(=O)c4ccc(F)cc4)cc3)c3n[nH]cc3c2c1 [Example #358, 4-fluoro-N-(4-((8-methoxy-2H-pyrazolo[3,4-c]quinolin-4-yl)amino)phenyl)benzamide]
35 | < 0.01 µM | COc1ccc2nc(Nc3ccc(N4CCOCC4)c([N+](=O)[O-])c3)c3n[nH]cc3c2c1 [Example #359, 8-methoxy-N-(4-morpholino-3-nitrophenyl)-2H-pyrazolo[3,4-c]quinolin-4-amine]
36 | 0.1 to 1 µM | COC(=O)c1scc2c1nc(Nc1ccc(OC)c(OC)c1)c1n[nH]cc12 [Example #275, 4-((3,4-dimethoxyphenyl)amino)-2H-pyrazolo[4,3-d]thieno[3,4-b]pyridine-6-carboxylic acid methyl ester]
37 | 0.1 to 1 µM | COc1cc2nc(Nc3ccc(NC(=O)Nc4cccc(C)c4)cc3)c3n[nH]cc3c2cc1OC [Example #299, 1-(4-((7,8-dimethoxy-2H-pyrazolo[3,4-c]quinolin-4-yl)amino)phenyl)-3-(m-tolyl)urea]
38 | 0.01 to 0.1 µM | COc1ccc2c(c1)nc(Nc1ccc3c(c1)OCO3)c1n[nH]cc12 [Example #267, Benzo[1,3]dioxol-5-yl-(7-methoxy-2H-pyrazolo[3,4-c]quinolin-4-yl)-amine]
39 | 0.1 to 1 µM | COc1ccc2nc(Nc3cccc(-n4nccn4)c3)c3n[nH]cc3c2c1 [Example #347, N-(3-(2H-1,2,3-triazol-2-yl)phenyl)-8-methoxy-2H-pyrazolo[3,4-c]quinolin-4-amine]
40 | 0.1 to 1 µM | COc1ccc2nc(Nc3ccc(-c4ccc(C(=O)O)cc4)cc3)c3n[nH]cc3c2c1 [Example #288, 4′-((8-methoxy-2H-pyrazolo[3,4-c]quinolin-4-yl)amino)-[1,1′-biphenyl]-4-carboxylic acid]
